ChEMBL document CHEMBL2440076, “New triarylpyrazoles as broad-spectrum anticancer agents: design, synthesis, and biological evaluation” (Eur J Med Chem, 2013)

Assays:
[1] = tested on: SK-MEL-28; test: Growth inhibition of human SK-MEL-28 cells assessed as cell growth at 10 uM after 48 hrs by sulforhodamine B assay; assay type: functional; details: SK-MEL-28, 48 h, read-out: Activity
[2] = tested on: SF-539; test: Growth inhibition of human SF539 cells after 48 hrs by sulforhodamine B assay; assay type: functional; details: SF-539, 48 h
[3] = tested on: ACHN; test: Growth inhibition of human ACHN cells after 48 hrs by sulforhodamine B assay; assay type: functional
[4] = tested on: A498; test: Growth inhibition of human A498 cells after 48 hrs by sulforhodamine B assay; assay type: functional, cell-based; details: A498, 48 h
[5] = tested on: HOP-92; test: Growth inhibition of human HOP92 cells after 48 hrs by sulforhodamine B assay; assay type: functional, cell-based; details: HOP-92, 48 h
[6] = tested on: A549; test: Growth inhibition of human A549/ATCC cells assessed as cell growth at 10 uM after 48 hrs by sulforhodamine B assay; assay type: functional; details: A549, 48 h, read-out: Activity
[7] = tested on: HCT-116; test: Growth inhibition of human HCT116 cells assessed as cell growth at 10 uM after 48 hrs by sulforhodamine B assay; assay type: functional; details: HCT-116, 48 h, read-out: Activity
[8] = tested on: PC-3; test: Growth inhibition of human PC3 cells assessed as cell growth at 10 uM after 48 hrs by sulforhodamine B assay; assay type: functional; details: PC-3, 48 h, read-out: Activity
[9] = tested on: NCI-H226; test: Growth inhibition of human NCI-H226 cells assessed as cell growth at 10 uM after 48 hrs by sulforhodamine B assay; assay type: functional; details: NCI-H226, 48 h, read-out: Activity
[10] = tested on: HT-29; test: Growth inhibition of human HT-29 cells assessed as cell growth at 10 uM after 48 hrs by sulforhodamine B assay; assay type: functional; details: HT-29, 48 h, read-out: Activity
[11] = tested on: 786-0; test: Growth inhibition of human 786-0 cells assessed as cell growth at 10 uM after 48 hrs by sulforhodamine B assay; assay type: functional; details: 786-0, 48 h, read-out: Activity
[12] = tested on: MDA-MB-468; test: Growth inhibition of human MDA-MB-468 cells after 48 hrs by sulforhodamine B assay; assay type: functional, cell-based; details: MDA-MB-468, 48 h
[13] = tested on: HT-29; test: Growth inhibition of human HT-29 cells after 48 hrs by sulforhodamine B assay; assay type: functional; details: HT-29, 48 h
[14] = tested on: SW-620; test: Growth inhibition of human SW620 cells after 48 hrs by sulforhodamine B assay; assay type: functional; details: SW-620, 48 h
[15] = tested on: SNB-75; test: Growth inhibition of human SNB75 cells after 48 hrs by sulforhodamine B assay; assay type: functional; details: SNB-75, 48 h
[16] = tested on: U-251; test: Growth inhibition of human U251 cells assessed as cell growth at 10 uM after 48 hrs by sulforhodamine B assay; assay type: functional; details: U-251, 48 h, read-out: Activity
[17] = tested on: SNB-19; test: Growth inhibition of human SNB19 cells assessed as cell growth at 10 uM after 48 hrs by sulforhodamine B assay; assay type: functional; details: SNB-19, 48 h, read-out: Activity
[18] = tested on: U-251; test: Growth inhibition of human U251 cells after 48 hrs by sulforhodamine B assay; assay type: functional; details: U-251, 48 h
[19] = tested on: T47D; test: Growth inhibition of human T47D cells after 48 hrs by sulforhodamine B assay; assay type: functional
[20] = Growth inhibition of human NCI-ADR-RES cells after 48 hrs by sulforhodamine B assay; assay type: functional
[21] = tested on: HOP-62; test: Growth inhibition of human HOP62 cells assessed as cell growth at 10 uM after 48 hrs by sulforhodamine B assay; assay type: functional; details: HOP-62, 48 h, read-out: Activity
[22] = tested on: SF-295; test: Growth inhibition of human SF295 cells after 48 hrs by sulforhodamine B assay; assay type: functional, cell-based; details: SF-295, 48 h
[23] = tested on: IGROV-1; test: Growth inhibition of human IGROV1 cells after 48 hrs by sulforhodamine B assay; assay type: functional; details: IGROV-1, 48 h
[24] = tested on: MCF7; test: Growth inhibition of human MCF7 cells after 48 hrs by sulforhodamine B assay; assay type: functional; details: MCF7, 48 h
[25] = tested on: SK-OV-3; test: Growth inhibition of human SKOV3 cells assessed as cell growth at 10 uM after 48 hrs by sulforhodamine B assay; assay type: functional; details: SK-OV-3, 48 h, read-out: Activity
[26] = tested on: NCI-H226; test: Growth inhibition of human NCI-H226 cells after 48 hrs by sulforhodamine B assay; assay type: functional; details: NCI-H226, 48 h
[27] = tested on: OVCAR-3; test: Growth inhibition of human OVCAR3 cells after 48 hrs by sulforhodamine B assay; assay type: functional, cell-based; details: OVCAR-3, 48 h
[28] = tested on: NCI-H460; test: Growth inhibition of human NCI-H460 cells after 48 hrs by sulforhodamine B assay; assay type: functional; details: NCI-H460, 48 h
[29] = tested on: NCI-H23; test: Growth inhibition of human NCI-H23 cells assessed as cell growth at 10 uM after 48 hrs by sulforhodamine B assay; assay type: functional; details: NCI-H23, 48 h, read-out: Activity
[30] = tested on: HL-60(TB); test: Growth inhibition of human HL-60(TB) cells assessed as cell growth at 10 uM after 48 hrs by sulforhodamine B assay; assay type: functional; details: HL-60, 48 h, read-out: Activity
[31] = Growth inhibition of human HCC2998 cells after 48 hrs by sulforhodamine B assay; assay type: functional; details: HCC 2998, 48 h
[32] = tested on: A549; test: Growth inhibition of human A549/ATCC cells after 48 hrs by sulforhodamine B assay; assay type: functional; details: A549, 48 h
[33] = tested on: UACC-257; test: Growth inhibition of human UACC257 cells assessed as cell growth at 10 uM after 48 hrs by sulforhodamine B assay; assay type: functional; details: UACC-257, 48 h, read-out: Activity
[34] = read-out: LC50 (the source's name)

`O=C(Nc1cccc(-n2cc(-c3ccncc3)c(-c3ccc(Cl)c(O)c3)n2)c1)c1ccc(N2CCOCC2)c(C(F)(F)F)c1` gave a growth at 10 µM [1] of 1.14%, a GI50 [2] of 1.37 µM and an LC50 (concentration killing 50% of cells) [2] greater than 50 µM. For the same compound, the TGI [2] was 17.3 µM, the GI50 [3] was 1.92 µM and the TGI [3] was greater than 50 µM. For the same compound, the CC50 [3, 34] was greater than 50 µM, the GI50 [4] was 15.5 µM and the IC50 [4] was 15.5 µM. For the same compound, the TGI [4] was greater than 50 µM, the CC50 [4, 34] was greater than 50 µM and the GI50 [5] was 0.555 µM. It also gave an IC50 [5] of 0.56 µM, an LC50 [5] greater than 50 µM and a TGI [5] of 3.81 µM. For the same compound, the growth at 10 µM [6] was 31.4%, the growth at 10 µM [7] was 29.6% and the growth at 10 µM [8] was 27.2%. The growth at 10 µM [9] was 107%, the growth at 10 µM [10] was 98% and the growth at 10 µM [11] was 59.6%. The GI50 [12] was 7.04 µM, the IC50 [12] was 7.04 µM and the TGI [12] was 26.6 µM. For the same compound, the CC50 [12, 34] was greater than 50 µM, the GI50 [13] was 14.4 µM and the TGI [13] was greater than 50 µM. The CC50 [13, 34] was greater than 50 µM, the GI50 [14] was 1.72 µM and the TGI [14] was 5.68 µM. For the same compound, the CC50 [14, 34] was greater than 50 µM, the GI50 [15] was 1.3 µM and the LC50 (lethal concentration, 50% net cell kill) [15] was greater than 50 µM. It also gave a TGI [15] greater than 50 µM, a growth at 10 µM [16] of 11.8% and a growth at 10 µM [17] of 65.7%. It also gave a GI50 [18] of 1.85 µM, an LC50 (concentration killing 50% of cells) [18] greater than 50 µM and a TGI [18] of 24.9 µM. The GI50 [19] was 35.9 µM, the TGI [19] was greater than 50 µM and the CC50 [19, 34] was greater than 50 µM. For the same compound, the GI50 [20] was 2.86 µM, the TGI [20] was greater than 50 µM and the CC50 [20, 34] was greater than 50 µM. For the same compound, the growth at 10 µM [21] was 40.4%, the GI50 [22] was 1.71 µM and the IC50 [22] was 1.71 µM. The TGI [22] was 7.55 µM, the CC50 [22, 34] was 37 µM and the GI50 [23] was 9.42 µM. For the same compound, the LC50 (concentration killing 50% of cells) [23] was greater than 50 µM, the TGI [23] was greater than 50 µM and the GI50 [24] was 2.81 µM. It also gave an LC50 [24] greater than 50 µM, a TGI [24] greater than 50 µM and a growth at 10 µM [25] of 74.2%. The GI50 [26] was greater than 50 µM, the TGI [26] was greater than 50 µM and the CC50 [26, 34] was greater than 50 µM. The GI50 [27] was 4.81 µM, the IC50 [27] was 4.81 µM and the TGI [27] was greater than 50 µM. It also gave a CC50 [27, 34] greater than 50 µM, a GI50 [28] of 1.72 µM and an LC50 [28] greater than 50 µM. For the same compound, the TGI [28] was 14.8 µM, the growth at 10 µM [29] was 61.3% and the growth at 10 µM [30] was 51.6%. It also gave a GI50 [31] of 5.66 µM, a TGI [31] greater than 50 µM and a CC50 [31, 34] greater than 50 µM. For the same compound, the GI50 [32] was 3.08 µM, the LC50 (concentration killing 50% of starting cells) [32] was greater than 50 µM and the TGI [32] was greater than 50 µM. For the same compound, the growth at 10 µM [33] was 38.9%.
